{"source": "patent US8669291B2", "about": "“Phenyl substituted cycloalkylamines as monoamine reuptake inhibitors” (Sunovion Pharmaceuticals Inc., priority 2007, dated 2014)", "key": {"[1]": {"molecular_target": "T1, human serotonin (5-HT) reuptake transporter (Homo sapiens, UniProt P31645)", "T1 construct": "expressed in transfected cells", "T1 sequence (P31645 whole entry)": "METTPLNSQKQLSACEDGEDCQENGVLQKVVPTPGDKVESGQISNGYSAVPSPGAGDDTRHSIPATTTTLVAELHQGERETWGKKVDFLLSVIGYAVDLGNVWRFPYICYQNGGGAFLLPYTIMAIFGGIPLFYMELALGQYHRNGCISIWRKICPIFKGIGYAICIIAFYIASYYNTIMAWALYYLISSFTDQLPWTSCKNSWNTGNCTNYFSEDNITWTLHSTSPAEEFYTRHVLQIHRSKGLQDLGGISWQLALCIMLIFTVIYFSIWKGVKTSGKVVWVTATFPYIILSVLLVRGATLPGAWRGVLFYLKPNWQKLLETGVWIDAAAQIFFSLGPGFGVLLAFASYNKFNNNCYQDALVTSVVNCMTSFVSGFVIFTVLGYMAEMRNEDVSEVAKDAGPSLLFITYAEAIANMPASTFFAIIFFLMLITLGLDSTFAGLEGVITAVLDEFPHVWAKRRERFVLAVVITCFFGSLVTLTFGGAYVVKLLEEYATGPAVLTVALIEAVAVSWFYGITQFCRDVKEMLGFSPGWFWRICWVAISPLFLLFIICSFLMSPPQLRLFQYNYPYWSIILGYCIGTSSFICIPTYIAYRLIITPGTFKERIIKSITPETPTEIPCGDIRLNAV", "assay": "functional uptake assay, human 5-HT reuptake transporter", "format": "cell-based", "method": "(§1) Compounds were tested for their inhibition of functional uptake of serotonin (5-HT), norepinephrine (NE), and dopamine (DA), in synaptosomes prepared from rat whole brain, hypothalamus, or corpus striatum, respectively, and/or using recombinant human transporters."}, "[2]": {"molecular_target": "T2, human norepinephrine (NE) reuptake transporter (Homo sapiens, UniProt P23975)", "T2 construct": "expressed in transfected cells", "T2 sequence (P23975 whole entry)": "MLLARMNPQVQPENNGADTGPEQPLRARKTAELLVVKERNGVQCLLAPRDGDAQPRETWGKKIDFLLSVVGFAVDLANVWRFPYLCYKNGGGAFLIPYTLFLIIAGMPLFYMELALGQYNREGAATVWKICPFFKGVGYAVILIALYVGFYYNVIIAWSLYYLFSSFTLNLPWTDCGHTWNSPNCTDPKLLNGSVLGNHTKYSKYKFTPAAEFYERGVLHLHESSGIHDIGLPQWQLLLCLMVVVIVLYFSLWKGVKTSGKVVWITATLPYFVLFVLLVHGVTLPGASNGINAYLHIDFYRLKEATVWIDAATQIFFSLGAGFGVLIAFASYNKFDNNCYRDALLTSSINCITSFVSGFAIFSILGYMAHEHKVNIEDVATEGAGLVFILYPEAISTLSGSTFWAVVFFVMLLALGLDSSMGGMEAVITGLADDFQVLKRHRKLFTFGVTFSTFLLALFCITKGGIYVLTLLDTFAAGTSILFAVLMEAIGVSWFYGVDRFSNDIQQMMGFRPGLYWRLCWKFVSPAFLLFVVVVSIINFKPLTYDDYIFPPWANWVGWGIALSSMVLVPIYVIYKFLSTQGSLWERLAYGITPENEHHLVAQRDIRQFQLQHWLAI", "assay": "functional uptake assay, human NE reuptake transporter", "format": "cell-based", "method": "as §1"}, "[3]": {"molecular_target": "T3, human dopamine (DA) reuptake transporter (Homo sapiens, UniProt Q01959)", "T3 construct": "expressed in transfected cells", "T3 sequence (Q01959 whole entry)": "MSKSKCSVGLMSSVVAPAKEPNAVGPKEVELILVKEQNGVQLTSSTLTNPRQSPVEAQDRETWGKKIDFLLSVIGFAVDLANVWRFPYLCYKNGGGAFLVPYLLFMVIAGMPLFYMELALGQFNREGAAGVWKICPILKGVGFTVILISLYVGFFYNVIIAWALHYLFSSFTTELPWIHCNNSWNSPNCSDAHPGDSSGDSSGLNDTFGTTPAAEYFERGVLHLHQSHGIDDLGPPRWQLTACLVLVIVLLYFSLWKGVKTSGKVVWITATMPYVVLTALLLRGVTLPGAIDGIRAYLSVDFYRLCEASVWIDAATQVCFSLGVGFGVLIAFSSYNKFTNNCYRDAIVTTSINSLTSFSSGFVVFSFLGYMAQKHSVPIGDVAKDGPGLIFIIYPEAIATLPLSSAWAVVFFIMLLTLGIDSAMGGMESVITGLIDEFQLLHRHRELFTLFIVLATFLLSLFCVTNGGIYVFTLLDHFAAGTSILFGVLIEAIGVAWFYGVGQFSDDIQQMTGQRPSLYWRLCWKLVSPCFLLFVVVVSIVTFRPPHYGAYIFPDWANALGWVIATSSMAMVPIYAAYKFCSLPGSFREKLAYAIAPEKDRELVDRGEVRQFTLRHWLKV", "assay": "functional uptake assay, human DA reuptake transporter", "format": "cell-based", "method": "as §1"}, "[4]": {"assay": "human metabolic stability (HLM t1/2)", "format": "in vitro ADME", "settings": "human liver microsomes", "text": "(§2) 4b. In Vitro PK Data (Human Metabolic Stability, Inhibition of CYP450 Enzymes, Inhibition of HERG Current)"}, "[5]": {"molecular_target": "HERG current (Homo sapiens, UniProt Q12809)", "sequence (Q12809 whole entry)": "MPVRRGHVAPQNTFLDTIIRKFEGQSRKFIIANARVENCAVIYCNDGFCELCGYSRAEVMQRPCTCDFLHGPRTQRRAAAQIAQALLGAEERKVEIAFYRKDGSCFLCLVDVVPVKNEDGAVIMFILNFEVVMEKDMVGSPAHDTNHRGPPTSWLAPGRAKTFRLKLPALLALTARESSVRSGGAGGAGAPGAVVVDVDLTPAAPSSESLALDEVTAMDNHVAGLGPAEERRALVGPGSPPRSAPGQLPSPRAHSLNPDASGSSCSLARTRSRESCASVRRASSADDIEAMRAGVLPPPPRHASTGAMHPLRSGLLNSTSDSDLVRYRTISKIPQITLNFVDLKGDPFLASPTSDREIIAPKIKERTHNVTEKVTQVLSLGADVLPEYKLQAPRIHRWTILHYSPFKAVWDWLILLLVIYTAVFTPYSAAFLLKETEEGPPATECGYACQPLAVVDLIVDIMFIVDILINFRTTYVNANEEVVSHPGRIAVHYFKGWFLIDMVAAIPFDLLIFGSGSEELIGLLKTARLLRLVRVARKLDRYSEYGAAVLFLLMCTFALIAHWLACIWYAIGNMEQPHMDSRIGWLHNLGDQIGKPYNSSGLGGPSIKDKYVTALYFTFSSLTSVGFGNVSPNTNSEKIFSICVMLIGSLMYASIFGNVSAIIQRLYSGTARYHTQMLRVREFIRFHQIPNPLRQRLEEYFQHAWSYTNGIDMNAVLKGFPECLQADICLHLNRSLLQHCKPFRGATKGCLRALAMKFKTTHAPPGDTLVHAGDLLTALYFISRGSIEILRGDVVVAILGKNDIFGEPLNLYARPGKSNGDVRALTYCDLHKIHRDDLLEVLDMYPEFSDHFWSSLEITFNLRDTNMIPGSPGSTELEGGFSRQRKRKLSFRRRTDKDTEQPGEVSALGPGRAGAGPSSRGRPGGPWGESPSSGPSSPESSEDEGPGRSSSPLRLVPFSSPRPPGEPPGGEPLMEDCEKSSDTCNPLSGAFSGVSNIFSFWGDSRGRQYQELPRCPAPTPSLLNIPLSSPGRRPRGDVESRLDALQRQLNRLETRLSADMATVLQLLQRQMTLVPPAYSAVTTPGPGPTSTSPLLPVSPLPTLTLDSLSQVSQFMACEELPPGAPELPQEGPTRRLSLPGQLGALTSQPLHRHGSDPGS", "assay": "inhibition of HERG current", "format": "cell-based", "text": "as §2"}, "[6]": {"test_system": "CYP2D6, CYP2C9, CYP3A4, CYP2C19, CYP1A (printed 1a)", "assay": "inhibition of CYP450 enzymes", "format": "in vitro ADME", "settings": "5 isoforms; read-out: CYP inhibition IC50 (microM) 5 isoforms (2D6, 2C9, 3A4, 2C19, 1a)", "text": "as §2"}, "[7]": {"test_system": "mice", "assay": "Mouse Tail Suspension Test", "format": "in vivo", "settings": "PO", "method": "The method, which detects antidepressant activity, follows that described by Stéru et al (Psychopharmacology, 85: 367-370 (1985)). Rodents, suspended by the tail, rapidly become immobile. Antidepressants decrease the duration of immobility.\nThe behavior of the animal was recorded automatically for 5 minutes using a computerized device (Med-Associates Inc.) similar to that developed by Stéru et al (Prog. Neuropsychopharmacol. Exp. Psychiatry 11: 659-671 (1987)). Ten to twelve mice were tested in each group. Compounds were typically evaluated at 3 doses (1-30 mg/kg), administered orally one time: 30-60 minutes before the test, and compared with a vehicle control group. Desipramine (100 mg/kg), administered under the same experimental conditions, was used as the positive reference substance.\n(§3) Data were analyzed by one way analysis of variance (ANOVA) followed by post-hoc comparisons where appropriate. An effect was considered significant if p<0.05. Data are represented as the mean and standard error to the mean (s.e.m)."}, "[8]": {"test_system": "mice", "assay": "Mouse Locomotor Activity", "format": "in vivo", "settings": "PO", "method": "In order to ensure effects of the compounds on immobility time were not related to a general stimulant effect on baseline motor activity, locomotor activity was assessed using photocell monitored cages (Med-Associates Inc.). Each test chamber was equipped with infrared photocell beams to measure movement of the animals. Horizontal and vertical activity were measured.\nRats or mice were pretreated with vehicle or test compounds and placed back in home cage, following which they were individually placed in locomotor cages and activity was monitored in 1-5 minute intervals for intervals up to 60 min.\nas §3"}, "[9]": {"test_system": "6-OHDA lesioned rat", "assay": "6-OHDA-lesioned rat Parkinson's disease model, paw placing test", "format": "in vivo", "method": "The effects of compound 4 alone and in combination with L-DOPA were evaluated in the rodent 6-OHDA-lesioned rat Parkinson's disease model. The method, which detects antiparkinson activity (reversal of motor deficits and akinesia), follows that described by Henry et al. (Exp Neurol, 151(2): 334-42, 1998).\nAnimal Preparation: Prior to surgery, rats were administered pargyline (5 mg/kg, ip) and desipramine (25 mg/kg ip) to optimize subsequent 6-OHDA availability and increase specificity for toxicity to dopaminergic neurons. Rats were then anesthetized with isoflurane and placed in a stereotaxic frame. After exposure of Bregma, a burr hole was drilled in the skull above the right median forebrain bundle at co-ordinates: 2.8 mm posterior and 2 mm lateral to Bregma (according to the atlas of Paxinos and Watson, 1986). […]\nPaw Placing Test: The paw placing test assesses correct placing of each forepaw in response to a sensory stimulus. […] The test was quantified as the percentage of successful placing responses of the limb contralateral to the side of the 6-OHDA lesion. […]\nDrug Administration: For the monotherapy experiment, the effects of 5 different treatments were assessed: 1) vehicle (sterile water, PO), 2) 3 mg/kg compound 4 (PO), 3) 10 mg/kg compound 4 (PO), 4) 30 mg/kg compound 4 and 5) 6.5 mg/kg (IP) of the positive reference substance, L-DOPA. […]"}, "[10]": {"settings": "Example 6 summary of selected in vitro data, read-out: 5-HT IC50"}}, "note": "Read-outs that look alike come from different tables or passages of the source.", "data": [{"smiles": "CNC[C@@H]1CCCC[C@@]1(O)c1ccc(Cl)c(Cl)c1", "note": "[Compound 4]", "values": [{"measurement": "IC50", "setting": "[1]; Example 4a, human reuptake transporter, read-out: 5-HT IC50", "result": "> 10000", "unit": "nM"}, {"measurement": "IC50", "setting": "[1]; [10]", "result": "> 10000", "unit": "nM"}, {"measurement": "IC50", "setting": "[2]", "result": "10 to 200", "unit": "nM"}, {"measurement": "IC50", "setting": "[2]; read-out: NE IC50 nM, Example 6 summary of selected in vitro data", "result": "10 to 200", "unit": "nM"}, {"measurement": "IC50", "setting": "[3]", "result": "10 to 200", "unit": "nM"}, {"measurement": "IC50", "setting": "[3]; read-out: DA IC50 nM, Example 6 summary of selected in vitro data", "result": "10 to 200", "unit": "nM"}, {"measurement": "half-life", "setting": "[4]", "result": "2.93 to 5.42", "unit": "h"}, {"measurement": "IC50", "setting": "[5]", "result": "1000 to 15000", "unit": "nM"}, {"measurement": "IC50", "setting": "[6]", "result": "> 10", "unit": "µM"}, {"measurement": "Mouse Tail Suspension Mean Immobility Time ± S.E.M.", "setting": "[7]; 1 mg/kg", "result": "++++ (>191 (++++))"}, {"measurement": "Mouse Tail Suspension Mean Immobility Time ± S.E.M.", "setting": "[7]; 3 mg/kg", "result": "++++ (>191 (++++))"}, {"measurement": "Mouse Tail Suspension Mean Immobility Time ± S.E.M.", "setting": "[7]; 10 mg/kg", "result": "+++ (171-190 (+++))"}, {"measurement": "Mouse Tail Suspension Mean Immobility Time ± S.E.M.", "setting": "[7]; 30 mg/kg", "result": "+ (100-160 (+))"}, {"measurement": "Mouse Locomotor Activity Total Distance Traveled ± S.E.M.", "setting": "[8]; 1 mg/kg", "result": "** (501-700 (**))"}, {"measurement": "Mouse Locomotor Activity Total Distance Traveled ± S.E.M.", "setting": "[8]; 3 mg/kg", "result": "** (501-700 (**))"}, {"measurement": "Mouse Locomotor Activity Total Distance Traveled ± S.E.M.", "setting": "[8]; 10 mg/kg", "result": "*** (701-900 (***))"}, {"measurement": "Mouse Locomotor Activity Total Distance Traveled ± S.E.M.", "setting": "[8]; 30 mg/kg", "result": "* (100-500 (*))"}, {"measurement": "paw placement performance", "setting": "[9]; 10 mg/kg, PO in combination with low dose L-DOPA, FIG. 6", "result": "significantly increased paw placement performance"}, {"measurement": "performance in the paw placement task", "setting": "[9]; alone, 3-30 mg/kg, PO", "result": "little or no improvement in performance"}]}, {"smiles": "CN(C)C[C@@H]1CCCC[C@@]1(O)c1ccc(Cl)c(Cl)c1", "note": "(single isomer, unassigned) [Compound 2, cis-1-(3,4-dichlorophenyl)-2-((dimethylamino)methyl)cyclohexanol]", "values": [{"measurement": "IC50", "setting": "[1]; 5-HT IC50 (nM), Example 4a, human reuptake transporter", "result": "7000 to 10000", "unit": "nM"}, {"measurement": "IC50", "setting": "[1]; [10]", "result": "1 to 2000", "unit": "nM"}, {"measurement": "IC50", "setting": "[2]", "result": "10 to 200", "unit": "nM"}, {"measurement": "IC50", "setting": "[2]; Example 6 summary of selected in vitro data, read-out: NE IC50", "result": "10 to 200", "unit": "nM"}, {"measurement": "IC50", "setting": "[3]", "result": "10 to 200", "unit": "nM"}, {"measurement": "IC50", "setting": "[3]; Example 6 summary of selected in vitro data, read-out: DA IC50", "result": "10 to 200", "unit": "nM"}, {"measurement": "half-life", "setting": "[4]", "result": "0.417 to 2.92", "unit": "h"}, {"measurement": "IC50", "setting": "[5]; read-out: HERG IC50", "result": "16000 to 30000", "unit": "nM"}, {"measurement": "IC50", "setting": "[6]", "result": "> 20", "unit": "µM"}, {"measurement": "Mouse Tail Suspension Mean Immobility Time ± S.E.M.", "setting": "[7]; 0.3 mg/kg", "result": "+++ (171-190 (+++))"}, {"measurement": "Mouse Tail Suspension Mean Immobility Time ± S.E.M.", "setting": "[7]; 1 mg/kg", "result": "+++ (171-190 (+++))"}, {"measurement": "Mouse Tail Suspension Mean Immobility Time ± S.E.M.", "setting": "[7]; 10 mg/kg", "result": "+ (100-160 (+))"}, {"measurement": "Mouse Tail Suspension Mean Immobility Time ± S.E.M.", "setting": "[7]; 30 mg/kg", "result": "+ (100-160 (+))"}, {"measurement": "Mouse Locomotor Activity Total Distance Traveled ± S.E.M.", "setting": "[8]; 0.3 mg/kg", "result": "** (501-700 (**))"}, {"measurement": "Mouse Locomotor Activity Total Distance Traveled ± S.E.M.", "setting": "[8]; 1 mg/kg", "result": "** (501-700 (**))"}, {"measurement": "Mouse Locomotor Activity Total Distance Traveled ± S.E.M.", "setting": "[8]; 10 mg/kg", "result": "**** (>901 (****))"}, {"measurement": "Mouse Locomotor Activity Total Distance Traveled ± S.E.M.", "setting": "[8]; 30 mg/kg", "result": "* (100-500 (*))"}]}]}
